The text below walks through data of publication PMC1977485, “The renal effects of N10-propargyl-5,8-dideazafolic acid (CB3717) and a non-nephrotoxic analogue ICI D1694, in mice” (British Journal of Cancer, 1991).

Data set [1] has as its system C57/DBA2 mice. Put plainly: GFR by 14C-inulin clearance, single timed plasma sample, in drug treated mice. Format: in vivo. An excerpt:
Br .Cncr(91) 4 3-88?McilnPesLd,19 The renal effects of N1l-propargyl-5,8-dideazafolic acid (CB3717) and a non-nephrotoxic analogue ICI D1694, in mice D.I. Jodrell', D.R. Newelll,*, S.E. Morgan', S. Clinton2, J.P.M. Bensted2, L.R. Hughes3 & A.H. Calvertl,* 'Clinical Pharmacology Team, Drug Development Section, and 2Histopathology Section, Institute of Cancer Research, 15 Cotswold Road, Sutton, Surrey SM2 SNG; and 3ICI Pharmaceuticals, Mereside, Alderley Park, Macclesfield, Cheshire SKIO 4TG, UK. Summary N-(5-[N-(3,4-dihydro-2-methyl-4-oxoquinazolin-6-ylmethyl)-N-methylamino]-2-thenoyl)-L-glutamic acid (ICI D1694) is an analogue of the thymidylate synthase inhibitor, N'?-propargyl-5,8-dideazafolic acid (CB3717). […] Previous studies have shown ICI D1694 to be non-toxic to the kidney following a single administration but its renal effects after chronic administration are unknown. […] The '4C-inulin clearance assay developed was used to show a linear relationship between CB3717 dosage and renal damage (r=-0.989) following a single bolus dose (50-200mgkg-'), in mice. CB3717-induced renal damage is persistent (>6 weeks) and renal scarring was noted. […] However, the clinical use of CB3717 was limited by its nephrotoxicity, which was observ- ed in Phase I studies of both weekly (Vest et al., 1988) and 3-weekly administration schedules (Calvert et al., 1986; Sessa et al., 1988). Renal toxicity manifested primarily as a reduc- tion in glomerular filtration rate (GFR). However, tubular damage was also identified by the measurement of the urin- ary enzymes, N-acetyl glucosaminidase (NAG) and leucine aminopeptidase (LAP). […] In addition, urinary NAG and LAP levels were elevated in 50% of patients studied, although this elevation was not dose related (Calvert et al., 1986). CB3717-induced nephrotoxicity was thought to be due to the compound's relative insolubility at acid pH. […] The plasma concentrations of urea and creatinine are com- monly measured to assess renal function during toxicological screening of new drugs. […]

For data set [2], the system named is C57/DBA2 mice. Nature of the data set: Plasma urea concentration. Format: in vivo. The following applies: single dose 100 mg kg-1, at 9, 10, 11 and 14 weeks, small number of animals. An excerpt: Br .Cncr(91) 4 3-88?McilnPesLd,19 The renal effects of N1l-propargyl-5,8-dideazafolic acid (CB3717) and a non-nephrotoxic analogue ICI D1694, in mice D.I. Jodrell', D.R. Newelll,*, S.E. Morgan', S. Clinton2, J.P.M. Bensted2, L.R. Hughes3 & A.H. Calvertl,* 'Clinical Pharmacology Team, Drug Development Section, and 2Histopathology Section, Institute of Cancer Research, 15 Cotswold Road, Sutton, Surrey SM2 SNG; and 3ICI Pharmaceuticals, Mereside, Alderley Park, Macclesfield, Cheshire SKIO 4TG, UK. Summary N-(5-[N-(3,4-dihydro-2-methyl-4-oxoquinazolin-6-ylmethyl)-N-methylamino]-2-thenoyl)-L-glutamic acid (ICI D1694) is an analogue of the thymidylate synthase inhibitor, N'?-propargyl-5,8-dideazafolic acid (CB3717). […] Previous studies have shown ICI D1694 to be non-toxic to the kidney following a single administration but its renal effects after chronic administration are unknown. […] The '4C-inulin clearance assay developed was used to show a linear relationship between CB3717 dosage and renal damage (r=-0.989) following a single bolus dose (50-200mgkg-'), in mice. CB3717-induced renal damage is persistent (>6 weeks) and renal scarring was noted. […] The plasma concentrations of urea and creatinine are com- monly measured to assess renal function during toxicological screening of new drugs. […]

In data set [3] the test system is C57/DBA2 mice. Put plainly: Histological examination of the kidney (H&E). Format: in vivo. The text has this:
Br .Cncr(91) 4 3-88?McilnPesLd,19 The renal effects of N1l-propargyl-5,8-dideazafolic acid (CB3717) and a non-nephrotoxic analogue ICI D1694, in mice D.I. Jodrell', D.R. Newelll,*, S.E. Morgan', S. Clinton2, J.P.M. Bensted2, L.R. Hughes3 & A.H. Calvertl,* 'Clinical Pharmacology Team, Drug Development Section, and 2Histopathology Section, Institute of Cancer Research, 15 Cotswold Road, Sutton, Surrey SM2 SNG; and 3ICI Pharmaceuticals, Mereside, Alderley Park, Macclesfield, Cheshire SKIO 4TG, UK. Summary N-(5-[N-(3,4-dihydro-2-methyl-4-oxoquinazolin-6-ylmethyl)-N-methylamino]-2-thenoyl)-L-glutamic acid (ICI D1694) is an analogue of the thymidylate synthase inhibitor, N'?-propargyl-5,8-dideazafolic acid (CB3717). […] Previous studies have shown ICI D1694 to be non-toxic to the kidney following a single administration but its renal effects after chronic administration are unknown. […] The '4C-inulin clearance assay developed was used to show a linear relationship between CB3717 dosage and renal damage (r=-0.989) following a single bolus dose (50-200mgkg-'), in mice. CB3717-induced renal damage is persistent (>6 weeks) and renal scarring was noted. […] However, the clinical use of CB3717 was limited by its nephrotoxicity, which was observ- ed in Phase I studies of both weekly (Vest et al., 1988) and 3-weekly administration schedules (Calvert et al., 1986; Sessa et al., 1988). Renal toxicity manifested primarily as a reduc- tion in glomerular filtration rate (GFR). However, tubular damage was also identified by the measurement of the urin- ary enzymes, N-acetyl glucosaminidase (NAG) and leucine aminopeptidase (LAP). […] In addition, urinary NAG and LAP levels were elevated in 50% of patients studied, although this elevation was not dose related (Calvert et al., 1986). CB3717-induced nephrotoxicity was thought to be due to the compound's relative insolubility at acid pH. […] To circumvent toxicity related to drug precipitation in the kidney, a series of more soluble analogues of CB3717 have been synthesised. […] One such analogue, N-(5-[N-(3,4-dihydro-2- methyl- 4 -oxoquinazolin- 6 -ylmethyl)- N -methylamino]-2-the- noyl) L-glutamic acid (ICI D1694, Figure lii) has been selected for preclinical development (Jackman et al., 1991). The plasma concentrations of urea and creatinine are com- monly measured to assess renal function during toxicological screening of new drugs. However, these parameters are rela- tively insensitive, because, in mice, a rise in plasma urea and creatinine concentration only occurs following the loss of 70-75% of functional renal mass (Everett & Harrison, 1983). Specificity is also poor because an elevation in plasma urea may be caused by 'pre-renal' (increased protein catabolism, gastric or intestinal bleeding and dehydration) or 'post-renal' (obstruction to renal outflow) causes, as well as parenchymal renal damage (Everett & Harrison, 1983). […] In man, the measurement of GFR has become accepted as a routine method for the assessment of renal function. The classical technique using inulin, which is solely cleared from the plasma by glomerular filtration, involves its constant infusion with simultaneous urine collec- tion (Jones, 1985). However, in mice, a constant infusion of inulin and simultaneous urine collection would require anaes- thesia or rigid restraint and complete emptying of the bladder before and at completion of the test (Ragan, 1989). Therefore a b Correspondence: D.I. Jodrell, Clinical Pharmacology, Drug Develop- ment Section, E Block, Institute of Cancer Research, 15 Cotswold Road, Sutton, Surrey SM2 5NG, UK. *Present address: Cancer Research Unit, The Medical School, Uni- versity of Newcastle upon Tyne, Framlington Place, Newcastle upon Tyne NE2 4HH, UK. Received 5 June 1991; and in revised form 19 July 1991. […]

In data set [4] the test system is patients. The following applies: cited from earlier work.
Details of data set [5]: method as in Newell et al., 1986. The following applies: radiolabelled CB3717, mice, 23 days after administration; ref Newell et al., 1986; cited from earlier work.
Data set [6] has as its system mice. Also noted: method as in Jodrell et al., 1990. The following applies: single bolus doses of 500 mg kg-1; ref Jodrell et al., 1990; cited from earlier work.
For data set [7] the following is noted: compared with CB3717; cited from earlier work.
The mark [8] stands for this setting: 100 mg kg-1 weekly for 6 weeks, 1 week after final dose.

Take `C#CCN(Cc1ccc2nc(N)[nH]c(=O)c2c1)c1ccc(C(=O)N[C@@H](CCC(=O)O)C(=O)O)cc1` [CB3717, N10-propargyl-5,8-dideazafolic acid]: the “reduction in GFR” value in data set [1] (200 mg kg-1 single ip bolus, 5 days after (Figure 4)) is recorded as above 70%. Moreover, the “persistence of renal damage” value in data set [1] (single dose 100 mg kg-1) is on record as above 6 weeks. In data set [1] (single dose of 10 mg kg-1 (30 mg m-2), 5 days after), the GFR entry was “normal”. Further, in data set [2], the “plasma biochemistry (urea and creatinine concentrations)” value is “normal”. Moreover, the kidney histology entry in data set [3] (setting [8]) was “Cortical scarring with tubular dilatation and amorphous casts”; in data set [3] (single dose 10 mg kg-1, 5 days after), “normal”; in data set [3] (single dose 50 mg kg-1, 5 days after), “focal tubular dilatation”; in data set [3] (single dose 100 mg kg-1, 14 weeks, small number of animals) it was “cortical scarring and the presence of amorphous casts”; in data set [3] (single dose 100 mg kg-1, 24 h after administration) it was “tubular dilatation”; in data set [3] (single dose 100 mg kg-1, day 3), “focal tubular dilatation”. Besides, the kidney histology result in data set [3] (single dose 100 mg kg-1, day 20) is “glomerular atrophy”; in data set [3] (single dose 100 mg kg-1, days 5 and 7), “Tubular dilatation persisted through days 5 and 7 with increased tubular mitotic activity”; in data set [3] (single dose 100 mg kg-1, six weeks (42 days)), “deeply pitted scars”. The “courses with reductions in GFR (creatinine clearance) of >20%” value in data set [4] (6/17 courses at 400 mg m2 despite alkalinisation of the urine, ref Sessa et al., 1988) is recorded as 35%. For the same compound, in data set [4] (bolus injection at weekly intervals, in man, ref Vest et al., 1988), the “lowest dose causing renal damage (reduction in GFR)” value was 10 mg m2. The “patients with elevated urinary NAG and LAP levels” value in data set [4] (patients studied, not dose related, ref Calvert et al., 1986) is recorded as 50%. The “patients with >20% reduction in GFR” value in data set [4] (seven of 12 patients receiving more than 400 mg m2, ref Calvert et al., 1986) is listed as 58%. The “radioactivity in the kidneys” value in data set [5] is listed as “still detectable”.

In the case of `Cc1nc2ccc(CN(C)c3ccc(C(=O)N[C@@H](CCC(=O)O)C(=O)O)s3)cc2c(=O)[nH]1` [ICI D1694, N-(5-[N-(3,4-dihydro-2-methyl-4-oxoquinazolin-6-ylmethyl)-N-methylamino]-2-thenoyl)-L-glutamic acid], the kidney histology entry in data set [3] (setting [8]) is listed as “no histological evidence of renal damage”; in data set [3] (250 mg kg-1 weekly for 6 weeks, 1 week after final dose), “normal in 5/5 mice”. In addition, the acute renal toxicity result in data set [6] was “absence of acute renal toxicity”. The water solubility entry in data set [7] is on record as “more water soluble”.
